Measurements from patent US20210038515A1 (Azurity Pharmaceuticals, Inc., priority 2014, published 2021).

Tested on: Clostridium difficile
Assay: Agar dilution MIC of vancomycin preparations (Sigma, Cutis), diluent, Na benzoate and Na citrate
Type: cell-based
Details: for MIC, AV (average): average of triplicate; for MIC, VAN-1: replicate 1; for MIC, VAN-2: replicate 2; for MIC, VAN-3: replicate 3
Protocol: Introduction: The purpose of the study was to compare the MICs obtained with the formulation of vancomycin HCL of the invention (Cutis) to formulations obtained using a vancomycin HCL reference standard powder obtained from Sigma. The Example also involves the analysis of a solution or diluent to determine if it has antimicrobial activity at the concentrations present in the agar dilution test.
The C. difficile were tested by agar dilution according to the procedures in the Clinical and Laboratory Standards Institute. 2012. Methods for antimicrobial susceptibility testing of anaerobic bacteria; approved standard-seventh edition.
Other anaerobic organisms included clinical isolates of Bifidobacterium adolescentis and Bacteroides fragilis. Clostridium difficile ATCC 700057 was included as a quality control strain.
The C. difficile isolates were recovered from patients with CDI during the past two years and stored at −70° C. in 20% skim milk. Ribotyping was performed by another reference laboratory. The strains were taken from the freezer and subcultured at least twice to ensure purity and good growth.
On the day of testing, they were suspended in Brucella broth to the turbidity of the 0.5 McFarland standard for testing.
Stock solution of the Sigma vancomycin was prepared in water and stored at −70° C. On the day of testing, it was thawed and further diluted in water to obtain the desired range of 16-0.125 μg/ml. The Cutis vancomycin (25 mg/ml) was reconstituted on the day of testing and further diluted for a final range of 16-0.125 μg/ml in the test. The antimicrobials were added to molten Brucella agar supplemented with vitamin K and hemin to prepare the plates. Drug-free growth controls were included for testing before and after each set of plates. All testing was done in triplicate.
The organisms were pipetted into the wells of the Steers replicator head and applied to the plates with the multi-pronged replicator. The final concentration of organisms was ˜10^5 CFU/spot.
The plates were incubated in the anaerobic chamber incubator for 44 h and examined for growth.
The Cutis diluent comprises: water, about 0.12% (w/v) citric acid (anhydrous), 0.2% (w/v) sucralose, about 0.05% (w/v) artificial grape flavor, 0.1% (w/v) sodium benzoate, about 0.0002% (w/v) D&C Yellow No. 10 and about 0.000038% (w/v) FD&C Red No. 40.

[1] = ATCC 700057 quality control strain, first set (r41)
[2] = ATCC 700057 quality control strain, second set (r74)

## CN[C@H](CC(C)C)C(=O)N[C@H]1C(=O)N[C@@H](CC(N)=O)C(=O)N[C@H]2C(=O)N[C@H]3C(=O)N[C@H](C(=O)N[C@H](C(=O)O)c4cc(O)cc(O)c4-c4cc3ccc4O)[C@H](O)c3ccc(c(Cl)c3)Oc3cc2cc(c3O[C@@H]2O[C@H](CO)[C@@H](O)[C@H](O)[C@H]2O[C@H]2C[C@](C)(N)[C@H](O)[C@H](C)O2)Oc2ccc(cc2Cl)[C@H]1O.Cl [Sigma]
[1]
  MIC, AV (average): 2 µg/mL
  MIC, VAN-1: 2 µg/mL
  MIC, VAN-2: 2 µg/mL
  MIC, VAN-3: 2 µg/mL
[2]
  MIC, AV (average): 2 µg/mL
  MIC, VAN-1: 2 µg/mL
  MIC, VAN-2: 2 µg/mL
  MIC, VAN-3: 2 µg/mL
RMA 24504, ribotype 027
  MIC, AV (average): 2 µg/mL
  MIC, VAN-1: 2 µg/mL
  MIC, VAN-2: 2 µg/mL
  MIC, VAN-3: 2 µg/mL
RMA 24510, ribotype 027
  MIC, AV (average): 1.7 µg/mL
  MIC, VAN-1: 2 µg/mL
  MIC, VAN-2: 2 µg/mL
  MIC, VAN-3: 1 µg/mL
RMA 24519, ribotype 027
  MIC, AV (average): 1.7 µg/mL
  MIC, VAN-1: 2 µg/mL
  MIC, VAN-2: 2 µg/mL
  MIC, VAN-3: 1 µg/mL
RMA 24527, ribotype 014
  MIC, AV (average): 2 µg/mL
  MIC, VAN-1: 2 µg/mL
  MIC, VAN-2: 2 µg/mL
  MIC, VAN-3: 2 µg/mL
RMA 24529, ribotype 014
  MIC, AV (average): 2 µg/mL
  MIC, VAN-1: 2 µg/mL
  MIC, VAN-2: 2 µg/mL
  MIC, VAN-3: 2 µg/mL
RMA 24541, ribotype 020
  MIC, AV (average): 1.7 µg/mL
  MIC, VAN-1: 1 µg/mL
  MIC, VAN-2: 2 µg/mL
  MIC, VAN-3: 2 µg/mL
RMA 24543, ribotype 020
  MIC, AV (average): 1.3 µg/mL
  MIC, VAN-1: 1 µg/mL
  MIC, VAN-2: 1 µg/mL
  MIC, VAN-3: 2 µg/mL
RMA 24547, ribotype 014
  MIC, AV (average): 1 µg/mL
  MIC, VAN-1: 1 µg/mL
  MIC, VAN-2: 1 µg/mL
  MIC, VAN-3: 1 µg/mL
RMA 24560, ribotype 078
  MIC, AV (average): 1.7 µg/mL
  MIC, VAN-1: 2 µg/mL
  MIC, VAN-2: 2 µg/mL
  MIC, VAN-3: 1 µg/mL
RMA 24561, ribotype 078
  MIC, AV (average): 2 µg/mL
  MIC, VAN-1: 2 µg/mL
  MIC, VAN-2: 2 µg/mL
  MIC, VAN-3: 2 µg/mL
RMA 24567, ribotype 020
  MIC, AV (average): 2 µg/mL
  MIC, VAN-1: 2 µg/mL
  MIC, VAN-2: 2 µg/mL
  MIC, VAN-3: 2 µg/mL
RMA 24575, ribotype 078
  MIC, AV (average): 2.7 µg/mL
  MIC, VAN-1: 2 µg/mL
  MIC, VAN-2: 4 µg/mL
  MIC, VAN-3: 2 µg/mL
RMA 24594, ribotype 106
  MIC, AV (average): 3.3 µg/mL
  MIC, VAN-1: 4 µg/mL
  MIC, VAN-2: 2 µg/mL
  MIC, VAN-3: 4 µg/mL
RMA 24601, ribotype 106
  MIC, AV (average): 2 µg/mL
  MIC, VAN-1: 2 µg/mL
  MIC, VAN-2: 2 µg/mL
  MIC, VAN-3: 2 µg/mL
RMA 24605, ribotype 002
  MIC, AV (average): 2 µg/mL
  MIC, VAN-1: 2 µg/mL
  MIC, VAN-2: 2 µg/mL
  MIC, VAN-3: 2 µg/mL
RMA 24607, ribotype 106
  MIC, AV (average): 2 µg/mL
  MIC, VAN-1: 2 µg/mL
  MIC, VAN-2: 2 µg/mL
  MIC, VAN-3: 2 µg/mL
RMA 24608, ribotype 002
  MIC, AV (average): 2 µg/mL
  MIC, VAN-1: 2 µg/mL
  MIC, VAN-2: 2 µg/mL
  MIC, VAN-3: 2 µg/mL
RMA 24615, ribotype 005
  MIC, AV (average): 2 µg/mL
  MIC, VAN-1: 2 µg/mL
  MIC, VAN-2: 2 µg/mL
  MIC, VAN-3: 2 µg/mL
RMA 24628, ribotype 012
  MIC, AV (average): 2 µg/mL
  MIC, VAN-1: 2 µg/mL
  MIC, VAN-2: 2 µg/mL
  MIC, VAN-3: 2 µg/mL
RMA 24641, ribotype 001/072
  MIC, AV (average): 2 µg/mL
  MIC, VAN-1: 2 µg/mL
  MIC, VAN-2: 2 µg/mL
  MIC, VAN-3: 2 µg/mL
RMA 24643, ribotype 001/072
  MIC, AV (average): 2 µg/mL
  MIC, VAN-1: 2 µg/mL
  MIC, VAN-2: 2 µg/mL
  MIC, VAN-3: 2 µg/mL
RMA 24646, ribotype 001/072
  MIC, AV (average): 2 µg/mL
  MIC, VAN-1: 2 µg/mL
  MIC, VAN-2: 2 µg/mL
  MIC, VAN-3: 2 µg/mL
RMA 24655, ribotype 005
  MIC, AV (average): 2 µg/mL
  MIC, VAN-1: 2 µg/mL
  MIC, VAN-2: 2 µg/mL
  MIC, VAN-3: 2 µg/mL
RMA 24678, ribotype 012
  MIC, AV (average): 4 µg/mL
  MIC, VAN-1: 4 µg/mL
  MIC, VAN-2: 4 µg/mL
  MIC, VAN-3: 4 µg/mL
RMA 24683, ribotype 027
  MIC, AV (average): 2 µg/mL
  MIC, VAN-1: 2 µg/mL
  MIC, VAN-2: 2 µg/mL
  MIC, VAN-3: 2 µg/mL
